According to patent publication US6632921B1, “Seryl-lysyl-based peptide and peptidomimetic inhibitors of N-myristoyl transferase as anti-infective agents” (G. D Searle & Co, priority 1995, dated 2003):

Experiments:
[1] = tested on: C.para.; test: Antifungal susceptibility testing, pH 5.4 assay, different strains of Candida; format: cell-based, C.parasilosis; details: 24 hr
[2] = tested on: C.alb (516); test: as above; format: cell-based; details: Candida albicans, 24 hr
Description: 1) (Assay at DH 5.4/30° C. Incubation/YNB Media).
Antifungal assays were carried out initially by a modification of the method published by Jones, et. al; (1), and communicated to Searle by Dr. Kobayashi, Washington University. [R. N. Jones et al, Manual of Clinical Microbiology, 4th ed., (1985)]
The antifungal susceptibility testing consists of a microdilution broth procedure performed in 96 well microtiter plates (Costar, cat#3799). Briefly, test compounds from a 20 mM stock solution in DMSO are diluted into sterile, deionized water (final DMSO concentration not exceeding 1%), to yield 2× the desired concentration (100 uM, 10 uM and 1 uM for an initial screen, or a selected concentration range in serial 2 fold dilutions for EC50 determination). One hundred microliters (100 ul) of each concentration is dispensed into triplicate wells of a 96 well microtiter plate. Appropriate dilutions of a suspension of C.albicans (1×10^6 cells/ml) in 2× YNB is distributed into each of the wells, including growth control wells containing no test compound as well as control wells with 0.5% DMSO. Amphotericin B at 0.05, 1 and 5 ug/ml is included in each assay plate as a positive control. The plates are incubated at 30° C. and cell growth is scored by reading the absorbance at 590 nm on an Elisa plate reader(Dynatech, MR.5000).

## Cc1nccn1CCCCc1ccc(CC(=O)N[C@@H](CO)C(=O)N[C@@H](CCCCN)C(=O)N[C@@H](CC2CCCCC2)C(=O)O)cc1 [Example 2, L-Alanine, 3-cyclohexyl-N-[N^2-[N-[[4-[4-(2-Methyl-1H-imidazol-1-yl)butyl]phenyl]acetyl]-L-seryl]-L-lysyl]-, bis-trifluoroacetate]
[1]
  EC50: 40 µM
[2]
  EC50: > 250 µM

## Cc1nccn1CCCCc1ccc(CC(=O)N[C@H](CO)C(=O)N[C@H](CCCCN)C(=O)N[C@H](CC2CCCCC2)C(=O)O)cc1 [Comparator Compound A, D-Alanine, 3-cyclohexyl-N-[N^2-[N-[[4-[4-(2-methyl-1H-imidazol-1-yl)butyl]phenyl]acetyl]-D-seryl]-D-lysyl]-, bis-trifluoroacetate]
[1]
  EC50: > 250 µM
[2]
  EC50: > 250 µM
